Entries after “also recorded” stand apart in the source; their conditions may differ. Where two headings read alike, the source gives them in different places.
Key:
[1] = tested on: human red blood cells (hRBCs); assay: Haemoglobin release from human red blood cells; assay type: cell-based
Description: Fresh human red blood cells (hRBCs) were centrifuged at 3500 rpm and washed with PBS buffer until the supernatant was clear. The hRBCs were then resuspended and diluted to a final concentration of 1% (v/v) in PBS and used immediately. 15 μL of serial dilution (2-fold) of peptides in DMSO or DMSO alone as a negative control were added to 1.5 mL of hRBCs in PBS. The resulting mixture was gently shaken to mix well and incubated at 37° C. for 1 hr, followed by centrifugation at 3500 rpm for 10 min using tabletop centrifuge. Aliquots (50 μL) of the supernatant (in triplicates) were transferred into a sterile 96-well plate containing 50 μL of H2O in each well. Release of hemoglobin was monitored at 415 nm using a microtiter plate reader. Percentage hemolysis was calculated using percentage hemolysis=100·(A415, peptide-A415,DMSO)/(A415, complete hemolysis-A415, DMSO), where complete hemolysis is achieved by mixing hRBCs with 1% TritonX-100.

[2] = tested on: human red blood cells (hRBCs); assay: K+ leakage from hRBCs (flame atomic emission); assay type: cell-based
Description: The rest of supernatant (1.2 mL) from each sample prepared as described in the hemoglobin leakage assay was transferred into a new sterile eppendorf tube and subject to the K+ concentration measurement using a flame-atomic emission spectrometer (λem=766.5 nm, Perkin Elmer Atomic absorption Spectrometer 3100, acetylene/air flame). Three readings were taken for each sample and averaged as final results. The fraction of K+ leakage from hRBCs was calculated as percentage K+ leaked=100·(I776.5,peptide−I776.5,DMSO)/(I776.5,complete lysis−I776.5,DMSO).

physchem = assay type: physicochemical
Description: Peptide solubility in 10 mM HEPES buffer with 1% DMSO was measured by monitoring tryptophan absorbance. A concentrated (6.0-8.0 mM) peptide stock solution in DMSO was diluted 100 times (5 μL of the stock into 500 jtl of 10 mM HEPES buffer, pH 7.0). The mixture was sonicated for 30 mins and then subject to centrifugation (14,000 rpm, 10 mins) to remove possible precipitate. The supernatant (400 μL) was transferred to a quartz cuvette and the peptide concentration was determined by tryptophan absorbance at 280 nm (ε=22760 M−1 cm-1). The UV/Vis spectra of the supernatant can be seen in FIG. 1 and FIG. 5.

[3] = Peptide binding onto membranes (Trp fluorescence)
[4] = Peptide binding onto membranes (Trp fluorescence); settings: negatively charged POPC/POPG vesicles; in words
[5] = K+ release from liposomes, lipid not specified; assay type: biochemical; settings: in words
Description: With the D-Lys residues incorporated towards the C-terminus, the gA peptide analogs described herein display amphipathic sequences. Since many amphipathic peptides are known to cause membrane damage through a detergent-like mechanism instead of forming specific channels,[19] it was further examined whether it is the case with the gA peptide analogs provided herein. Toward this end, the ion selectivity of gA-3, 4, and 5 was assessed by using liposomes encapsulating K+ and Tb3+ respectively. […] The wild type like channel structure of the D-Lys mutants is further supported by the fact that gA-5 and gA-WT share similar signatures in their circular dichroism spectra (FIG. 11). This exclusive leakage of monovalent cations presents a great advantage of the gA analog peptides described herein in comparison to the majority of AMPs, which often cause catastrophic membrane collapse to release all bacterial cellular content, leading to potential complications of over-stimulated immune response.
The K+ leakage from liposomes was determined by a potassium ion selective electrode (K-ISE, Cole-Parmer, Vernon Hills, Ill.). The electrode was calibrated each day before experiments. A liposome solution in Buffer A (2 mL, 500 μM POPC or POPC/POPG⊃10 mM HEPES, 150 mM KCl, pH 7.0) was stirred at constant speed and peptide at various concentration (1 μL in DMSO) was added accumulatively. Three minutes after each peptide addition, the K+ concentration was measured and reported as the K-ISE potential. At the end of each experiment, gA-WT stock (1 μL, 1 mM) was added to induce 100% K+ leakage. The potential reported by the K-ISE was plotted against peptide concentration after the background noise (caused by DMSO addition) was subtracted and normalized to 0-100%.

[6] = Tb3+ leakage from liposomes, lipid not specified; assay type: biochemical; settings: at peptide concentrations causing complete K+ release; in words
[7] = tested on: Bacillus subtilis (ATCC 663); settings: for MIC relative to wild-type Gramicidin A: B. subtilis
[8] = tested on: Staphylococcus aureus (ATCC 6538); settings: for MIC relative to wild-type Gramicidin A: S. Aureus
[9] = tested on: Streptococcus pyogenes (ATCC 19615); settings: for MIC relative to wild-type Gramicidin A: S. Pyogenes
[10] = cited from earlier work; for Sat. Conc, Lys series: Trp absorbance @ 280 nm, 10 mM PBS, pH 7.0, 1% DMSO, values taken from ref
HeLa = assay: MTT toxicity assay; assay type: cell-based, human; settings: HeLa; in words
Description: (§1) Toxicity of gA-WT and gA-5 was tested against two human cancer cell lines, HeLa and MCF-7 (gifts from Professor Eranthie Weerapana at Boston College) by using the MTT assay as described in the protocol provided by Invitrogen.[5] HeLa cells (in DMEM high glucose media with 10% FBS, 1% Pen/Strep, 37° C., 5% CO2) and MCF-7 cells (in RPMI media with 10% FBS and 1% Pen/Strep, 37° C., 5% CO2) were grown to about 80% confluent before removed from the surface of a 20 cm petri-dish with […] with EDTA (3-5 mins, 37° C., 5% CO2). Cells were pelleted (3,500 rpm, 5 mins at 4° C.), and plated at 15,000 cells per well (100 μL per well), then incubated for 48 hrs before peptide addition.
(§2) Stock solutions of gA in DMSO with varied concentrations were prepared so that for each peptide concentration the total volume of DMSO addition was kept constant at 1% (v/v). For each peptide concentration, samples were set up as four replicates. Control wells were loaded with 1 μL of DMSO. After overnight incubation, cells were washed once with PBS before being incubated for 4 hrs with 110 μL of 12 mM 3-(4,5-Dimethylthiazol-2-yl)-2,5-diphenyltetrazolium bromide (MTT) dissolved in RPMI media. The MTT assay was quenched with 100 μL of 10% SDS in 0.01 M HCl and allowed to incubate overnight before absorbance at 570 nm was recorded. Wells were averaged and standard deviations determined for each peptide concentration. Data were normalized to the DMSO control to give % cell survival (see FIG. 3).

MCF-7 = assay: MTT toxicity assay; assay type: cell-based, human; settings: MCF-7; in words
Description: as §1, §2

[11] = Table 2, standard micro-dilution

SMILES | haemoglobin leakage from hRBCs [1] | HC50 (50% haemoglobin leakage relative to 1% TritonX-100) ([1]; red cells of human) | KC50 (50% K+ ion leakage relative to 1% TritonX-100) [2] | peptide concentration for 50% K+ ion leakage, fold greater than wild-type Gramicidin A [2] | water solubility, fold higher than wild-type Gramicidin A (physchem) [fold] | reduced affinity to POPC vesicles [3] [folds] | apparent dissociation constant (Kd) / binding [4] | K+ release from LUVs [5] | Tb3+ leakage from LUVs [6] | MICs B. Subtilius ([7]; ATCC 663) [µM] | MIC relative to wild-type Gramicidin A [7] | MICs S. Aureus ([8]; ATCC 6538) [µM] | MIC relative to wild-type Gramicidin A [8] | MICs S. Pyogenes ([9]; ATCC 19615) [µM] | MIC relative to wild-type Gramicidin A [9] | Sat. Conc, Lys series [10] [µM] | further results
CC(C)C[C@@H](NC(=O)[C@H](C)NC(=O)CNC(=O)[C@@H](NC=O)C(C)C)C(=O)N[C@@H](C)C(=O)N[C@@H](C(=O)N[C@H](C(=O)N[C@@H](C(=O)N[C@@H](Cc1c[nH]c2ccccc12)C(=O)N[C@H](CCCCN)C(=O)N[C@@H](Cc1c[nH]c2ccccc12)C(=O)N[C@H](CCCCN)C(=O)N[C@@H](Cc1c[nH]c2ccccc12)C(=O)N[C@H](CC(C)C)C(=O)N[C@@H](Cc1c[nH]c2ccccc12)C(=O)NCCO)C(C)C)C(C)C)C(C)C (racemic) [gA-4, formyl-V-G-A-dL-A-dV-V-dV-W-dK-W-dK-W-dL-W-NHCH2CH2OH] | not enough to cause 50% haemoglobin leakage | >100 µM | 5~10 μM | over 10^5 fold | ~740 | ~70 | comparable to that of gA-WT | potent activity in K+ release | essentially no Tb3+ leakage; also recorded: behave similarly to gA-5 | 2.5 | equivalent to or ˜2-fold higher | 5 | equivalent to or ˜2-fold higher | 0.16 | equivalent to or ˜2-fold higher | 39 | 
CC(C)C[C@@H](NC(=O)[C@H](C)NC(=O)CNC(=O)[C@@H](NC=O)C(C)C)C(=O)N[C@@H](C)C(=O)N[C@@H](C(=O)N[C@H](C(=O)N[C@@H](C(=O)N[C@@H](Cc1c[nH]c2ccccc12)C(=O)N[C@H](CCCCN)C(=O)N[C@@H](Cc1c[nH]c2ccccc12)C(=O)N[C@H](CC(C)C)C(=O)N[C@@H](Cc1c[nH]c2ccccc12)C(=O)N[C@H](CCCCN)C(=O)N[C@@H](Cc1c[nH]c2ccccc12)C(=O)NCCO)C(C)C)C(C)C)C(C)C (racemic) [gA-3, formyl-V-G-A-dL-A-dV-V-dV-W-dK-W-dL-W-dK-W-NHCH2CH2OH] | not enough to cause 50% haemoglobin leakage | >70 µM | 5~10 μM | greater than 10^5 fold | ~740 | ~70 | comparable to that of gA-WT | potent activity in K+ release | essentially no Tb3+ leakage; also recorded: behave similarly to gA-5 | 5 | ~2 fold | 5 | ~2 fold | 0.32 | ~2 fold | 38 | 
CC(C)C[C@@H](NC(=O)[C@H](C)NC(=O)CNC(=O)[C@@H](NC=O)C(C)C)C(=O)N[C@@H](C)C(=O)N[C@@H](C(=O)N[C@H](C(=O)N[C@@H](C(=O)N[C@@H](Cc1c[nH]c2ccccc12)C(=O)N[C@H](CCCCN)C(=O)N[C@@H](Cc1c[nH]c2ccccc12)C(=O)N[C@H](CC(C)C)C(=O)N[C@@H](Cc1c[nH]c2ccccc12)C(=O)N[C@H](CC(C)C)C(=O)N[C@@H](Cc1c[nH]c2ccccc12)C(=O)NCCO)C(C)C)C(C)C)C(C)C (racemic) [gA-1, formyl-V-G-A-dL-A-dV-V-dV-W-dK-W-dL-W-dL-W-NHCH2CH2OH] |  | 5~10 μM | 0.01 µM | ~100 fold | ~200 |  | apparent Kd values close to that of gA-WT |  |  | 5 | equivalent to that of wild-type Gramicidin A | 2.5 | equivalent to that of wild-type Gramicidin A | 0.16 | equivalent to that of wild-type Gramicidin A | 10 | apparent dissociation constant (Kd) / binding ([3]; neutral POPC vesicles, in words): apparent Kd values close to that of gA-WT
CC(C)C[C@@H](NC(=O)[C@H](C)NC(=O)CNC(=O)[C@@H](NC=O)C(C)C)C(=O)N[C@@H](C)C(=O)N[C@@H](C(=O)N[C@H](C(=O)N[C@@H](C(=O)N[C@@H](Cc1c[nH]c2ccccc12)C(=O)N[C@H](CC(C)C)C(=O)N[C@@H](Cc1c[nH]c2ccccc12)C(=O)N[C@H](CC(C)C)C(=O)N[C@@H](Cc1c[nH]c2ccccc12)C(=O)N[C@H](CC(C)C)C(=O)N[C@@H](Cc1c[nH]c2ccccc12)C(=O)NCCO)C(C)C)C(C)C)C(C)C (racemic) [gA-WT, formyl-V-G-A-dL-A-dV-V-dV-W-dL-W-dL-W-dL-W-NHCH2CH2OH, reference compound] |  |  |  |  |  |  |  |  |  |  |  |  |  |  |  |  | HC50 (50% haemoglobin leakage relative to 1% TritonX-100) ([1]; Table 2, hRBCs): 5 µM; Toxicity HC50 ([1]; Table 6, hRBCs, preliminary): 5 µM; HC50 ([1]; Table 8): 5; KC50 (50% K+ ion leakage relative to 1% TritonX-100) ([2]; Table 2, hRBCs): 0.00014 µM; Toxicity KC50 ([2]; Table 6, hRBCs, preliminary): 0.00014 µM; KC50 ([2]; hRBCs): 140 pM; toxicity, cell survival (MTT) (HeLa): low μM potency; toxicity, cell survival (MTT) (MCF-7): low μM potency; MICs B. Subtilius [7, 11]: 2.5 µM; Minimum Inhibition Concentration B. Subtilius ([7]; Table 6): 2.5 µM; MICs S. Aureus [8, 11]: 2.5 µM; Minimum Inhibition Concentration S. Aureus ([8]; Table 6): 2.5 µM; MICs S. Pyogenes [9, 11]: 0.16 µM; Minimum Inhibition Concentration S. Pyogenesis ([9]; Table 6): 0.16 µM; solubility in water ([10]; wild type, from reference [8]): < 0.05 µM

— US9243037B2, “Gramicidin a mutants that function as antibiotics with improved solubility and reduced toxicity” (Trustees of Boston College, priority 2011, dated 2016)
